# System: MCF7 complex spheroid growth, % test/control
# Assay: Anticancer human tumor MCF7 cell line growth inhibition [Asc];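 also: spheroids exposed to compounds for 7 days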;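 as to viability, T/C: 100% = DMSO vehicle control wells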
# Conditions: for IC50: curve of first compound; for viability, T/C: stronger effect = lower value
# Protocol: Multicellular complex tumor spheroid response to apoptosis pathway targeting inhibitors Alrizomadlin, Pelcitoclax, and Dasminapant in combination with a variety of drugs and investigational agents in selected tumor cell lines
# The MDM2 inhibitor alrizomadlin, the Bcl-2/Bcl-xL inhibitor pelcitoclax, and the IAPs inhibitor dasminapant were evaluated both individually and in combination with standard of care and investigational anticancer small molecules within a complex spheroid model of solid tumors. . Complex spheroids include a stromal component modeled by human endothelial cells (HUVEC) and fibroblasts modeled by human mesenchymal stem cells (MSCs). The concentration ranges selected for each drug and investigational agent were based upon clinically achievable concentrations if the clinical Cmax of the agent was known.
# Compounds. The drugs and investigational agents: alrizomadlin (APG-115; NSC831270), pelcitoclax (APG-1252; NSC835773), dasminapant (APG-1387;NSC834197), TAK-243 (NSC785004), copanlisib (NSC809693), olaparib (NSC753686), talazoparib (NSC767125), cobimetinib (NSC 768068), eltanexor (KPT-8602, NSC 794443), abemaciclib (NSC 768073), sotorasib (NSC818433), adagrasib (NSC 831453), MRTX-1133 (NSC 836407), Iadademestat (ORY1001, NSC 806812), and RMC-4630 (NSC839698), were obtained from the NCI Developmental Therapeutics Program Chemical Repository. The FDA-approved anticancer drug set is available from the Developmental Therapeutics Program at https://dtp.cancer.gov/organization/dscb/obtaining/available plates.htm. […] The stock solutions were prepared in dimethyl sulfoxide (DMSO, Sigma-Aldrich, St. Louis, MO, cat. D2650) at 800-fold the tested concentration and stored at -70 degrees C prior to their use. All drugs and investigational agents were tested over a range starting from a high concentration at or near the clinical Cmax and decreasing in half-log increments. If the clinical Cmax for an agent had not been determined, the highest concentration tested was 10 microM.
# The patient-derived cancer (PDC) cell lines include five colon adenocarcinomas: 186277-243-T-J2-PDC, 616215-338-R-J1-PDC, 439559-082-T-J2-PDC, 463943-066-T-J2-PDC, and 519858-162-T-J1-PDC; three pancreatic carcinomas: 323965-272-R-J2-PDC, 521955-158-R6-J3-PDC, and 521955-158-R2-J5-PDC; two uterine sarcomas: 327498-152-R-J2-PDC and 993429-296-R-J1-PDC; two rhabdomyosarcomas: 755483-174-R-J1-PDC and 772245-204-R-J1-PDC; two soft tissue sarcomas: 126254-015-R-J1-PDC and 494315-158-R-J1-PDC; two malignant fibrous histiocytomas: 317291-083-R-J1-PDC and 596521-263-R-J1-PDC; two breast carcinomas: 171881-019-R-J1-PDC and 885512-296-R-J2-PDC; and one ovarian carcinoma: 6556581-035-R-J-PDC were obtained from the NCI PDMR, (https://pdmr.cancer.gov). The established cell lines HSSY-2 synovial sarcoma (RRID:CVCL 8719), SYO-1 synovial sarcoma (RRID:CVCL_7146), MPNST malignant peripheral neural sheath tumor were obtained from the Sloan Kettering Institute. The following established cell lines were purchased from the American Type Culture Collection (ATCC, Manassas, VA), Sor the received from the NCI repository:, PANC-1 pancreatic carcinoma (CRL-1469, RRID:CVCL_0480), OVCAR-5 ovarian carcinoma (RRID:CVCL_1628), OVCAR-8 ovarian carcinoma (RRID:CVCL_1629), , MCF-7 breast carcinoma (CRL-12584, RRID:CVCL_0031), MDA-MB-231 breast carcinoma (CRL-12532, RRID:CVCL_0062), NCI-H1876 small cell lung carcinoma (CRL-5902, RRID:CVCL_1503), NCI-H510A small cell lung carcinoma (HTB-184, RRID:CVCL_1565), NCI-H1417 (CRL-5869, RRID:CVCL_1469), and NCI-H196 small cell lung carcinoma (CRL-5823, RRID:CVCL_1509). Dr. Peter Houghton (Greehey Children's Cancer Research Institute, University of Texas Health Science Center, San Antonio, TX) provided Rh-18 rhabdomyosarcoma (RRID:CVCL_1659). Pooled donor human umbilical vein endothelial cells (HUVEC, Lonza, cat. CC-2519) and human mesenchymal stem cells (hMSC, Lonza, cat. PT-2501) were purchased from Lonza (Walkersville, MD).
# Cell Culture. […]
smiles,measurement,setting,value
NC1CCC(NC2CC2c2ccccc2)CC1 (configuration not stated) + Cc1c(S(C)(=O)=O)c(-c2cc(F)cc(N3CCN(c4ccc(NS(=O)(=O)c5ccc(NC(CCN6CCC(C(=O)OCCCP(=O)(O)O)CC6)CSc6ccccc6)c(S(=O)(=O)C(F)(F)F)c5)cc4)CC3)c2)c(-c2ccc(Cl)cc2)n1C(C)C,IC50,second compound 0.0316 µM,> 100 nM
same,IC50,second compound 0.1 µM,> 100 nM
same,IC50,second compound 0.316 µM,> 100 nM
same,IC50,second compound 1 µM,> 100 nM
same,IC50,second compound 3.16 µM,> 100 nM
same,IC50,second compound 10 µM,> 100 nM
same,"viability, T/C","second compound 0.0316 µM, first compound 0.000316 µM",120%
same,"viability, T/C","second compound 0.0316 µM, first compound 0.001 µM",93.7%
same,"viability, T/C","second compound 0.0316 µM, first compound 0.00316 µM",93.3%
same,"viability, T/C","second compound 0.0316 µM, first compound 0.01 µM",103%
same,"viability, T/C","second compound 0.0316 µM, first compound 0.0316 µM",99.9%
same,"viability, T/C","second compound 0.0316 µM, first compound 0.1 µM",106%
same,"viability, T/C","second compound 0.1 µM, first compound 0.000316 µM",96.7%
same,"viability, T/C","second compound 0.1 µM, first compound 0.001 µM",106%
same,"viability, T/C","second compound 0.1 µM, first compound 0.00316 µM",96.3%
same,"viability, T/C","second compound 0.1 µM, first compound 0.01 µM",115%
same,"viability, T/C","second compound 0.1 µM, first compound 0.0316 µM",115%
same,"viability, T/C","second compound 0.1 µM, first compound 0.1 µM",97.1%
same,"viability, T/C","second compound 0.316 µM, first compound 0.000316 µM",95.4%
same,"viability, T/C","second compound 0.316 µM, first compound 0.001 µM",87.7%
same,"viability, T/C","second compound 0.316 µM, first compound 0.00316 µM",113%
same,"viability, T/C","second compound 0.316 µM, first compound 0.01 µM",97.1%
same,"viability, T/C","second compound 0.316 µM, first compound 0.0316 µM",91.7%
same,"viability, T/C","second compound 0.316 µM, first compound 0.1 µM",100%
same,"viability, T/C","second compound 1 µM, first compound 0.000316 µM",85.4%
same,"viability, T/C","second compound 1 µM, first compound 0.001 µM",82.6%
same,"viability, T/C","second compound 1 µM, first compound 0.00316 µM",95%
same,"viability, T/C","second compound 1 µM, first compound 0.01 µM",84.5%
same,"viability, T/C","second compound 1 µM, first compound 0.0316 µM",102%
same,"viability, T/C","second compound 1 µM, first compound 0.1 µM",92.9%
same,"viability, T/C","second compound 3.16 µM, first compound 0.000316 µM",96.8%
same,"viability, T/C","second compound 3.16 µM, first compound 0.001 µM",83.8%
same,"viability, T/C","second compound 3.16 µM, first compound 0.00316 µM",87.5%
same,"viability, T/C","second compound 3.16 µM, first compound 0.01 µM",98.6%
same,"viability, T/C","second compound 3.16 µM, first compound 0.0316 µM",83.5%
same,"viability, T/C","second compound 3.16 µM, first compound 0.1 µM",127%
same,"viability, T/C","second compound 10 µM, first compound 0.000316 µM",150%
same,"viability, T/C","second compound 10 µM, first compound 0.001 µM",195%
same,"viability, T/C","second compound 10 µM, first compound 0.00316 µM",149%
same,"viability, T/C","second compound 10 µM, first compound 0.01 µM",215%
same,"viability, T/C","second compound 10 µM, first compound 0.0316 µM",186%
same,"viability, T/C","second compound 10 µM, first compound 0.1 µM",161%
